Measurements published in ChEMBL document CHEMBL1201862, “PubChem BioAssay data set” (2004).
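Where inhibition never reached the appropriate level, the endpoint shown equals the highest concentration tested. Otherwise, values were interpolated linearly from a five-concentration, 48-hour dose response in 96-well plates. GI50 is the concentration that inhibits growth by half.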 Calls of active or inactive are those of the source. Cut-off read from the data, not from the text of the source: active = GI50 up to about 1.1 µM and inactive = higher.

How the values were obtained:
Experiment in all cases: NCI-60 cell line screen, 48 h
[1] = tested on: ACHN
[2] = tested on: EKVX
[3] = tested on: HCT-15
[4] = tested on: SK-MEL-28
[5] = tested on: SK-MEL-2
[6] = tested on: NCI-H23
[7] = tested on: SW-620
[8] = tested on: M14
[9] = tested on: COLO 205
[10] = tested on: OVCAR-3
[11] = tested on: SF-295
[12] = tested on: SNB-19
[13] = tested on: SF-539
[14] = tested on: CAKI-1
[15] = tested on: UACC-257
[16] = tested on: SK-MEL-5
[17] = tested on: LOX IMVI
[18] = tested on: UO-31
[19] = tested on: SNB-78
[20] = tested on: OVCAR-4
[21] = tested on: A549
[22] = tested on: TK-10
[23] = tested on: SN12C
[24] = tested on: NCI-H460
[25] = tested on: HT-29
[26] = tested on: IGROV-1
[27] = tested on: U-251
[28] = tested on: DMS-273
[29] = tested on: OVCAR-8
[30] = tested on: KM12
[31] = tested on: HCC 2998
[32] = tested on: HOP-92
[33] = tested on: HOP-62
[34] = tested on: NCI-H522
[35] = tested on: HCT-116
[36] = tested on: UACC-62
[37] = tested on: SK-OV-3
[38] = tested on: 786-0
[39] = tested on: KM-20L2
[40] = tested on: DLD-1
[41] = tested on: SF-268
[42] = tested on: LXFL 529
[43] = tested on: PC-3
[44] = tested on: K562
[45] = tested on: MDA-N
[46] = tested on: RPMI-8226
[47] = tested on: MDA-MB-435
[48] = tested on: Hs-578T
[49] = tested on: SR
[50] = tested on: NCI-H226
[51] = tested on: DU-145
[52] = tested on: CCRF-CEM
[53] = tested on: SNB-75
[54] = tested on: BT-549
[55] = tested on: A498
[56] = tested on: RXF 393
[57] = tested on: HL-60
[58] = tested on: MOLT-4
[59] = tested on: Malme-3M
[60] = tested on: OVCAR-5
[61] = tested on: T47D
[62] = tested on: NCI/ADR-RES
[63] = tested on: MDA-MB-231
[64] = tested on: MCF7

NC(=O)N=C(NCc1ccccc1)NCc1ccccc1
GI50 [1]: > 100 µM (inactive)
GI50 [2]: > 100 µM (inactive)
GI50 [3]: > 100 µM
GI50 [4]: > 100 µM (inactive)
GI50 [5]: > 100 µM (inactive)
GI50 [6]: > 100 µM (inactive)
GI50 [7]: > 100 µM (inactive)
GI50 [8]: > 100 µM (inactive)
GI50 [9]: > 100 µM (inactive)
GI50 [10]: > 100 µM (inactive)
GI50 [11]: > 100 µM (inactive)
GI50 [12]: > 100 µM (inactive)
GI50 [13]: > 100 µM (inactive)
GI50 [14]: > 100 µM (inactive)
GI50 [15]: > 100 µM (inactive)
GI50 [16]: > 100 µM (inactive)
GI50 [17]: > 100 µM (inactive)
GI50 [18]: > 100 µM (inactive)
GI50 [19]: > 100 µM (inactive)
GI50 [20]: > 100 µM (inactive)
GI50 [21]: > 100 µM (inactive)
GI50 [22]: > 100 µM (inactive)
GI50 [23]: > 100 µM (inactive)
GI50 [24]: > 100 µM (inactive)
GI50 [25]: > 100 µM (inactive)
GI50 [26]: > 100 µM (inactive)
GI50 [27]: > 100 µM (inactive)
GI50 [28]: > 100 µM (inactive)
GI50 [29]: > 100 µM (inactive)
GI50 [30]: > 100 µM (inactive)
GI50 [31]: > 100 µM (inactive)
GI50 [32]: 20 µM (inactive)
GI50 [33]: > 100 µM (inactive)
GI50 [34]: > 100 µM (inactive)
GI50 [35]: > 100 µM (inactive)
GI50 [36]: > 100 µM (inactive)
GI50 [37]: > 100 µM (inactive)
GI50 [38]: > 100 µM (inactive)
GI50 [39]: > 100 µM (inactive)
GI50 [40]: > 100 µM (inactive)
GI50 [41]: > 100 µM (inactive)
GI50 [42]: > 100 µM (inactive)

O=CC(I)=C(c1ccccc1)c1ccccc1
GI50 [1]: 20.7 µM (inactive)
GI50 [2]: 18.9 µM (inactive)
GI50 [43]: 15.2 µM (inactive)
GI50 [44]: 18.5 µM (inactive)
GI50 [45]: 17 µM (inactive)
GI50 [3]: 14.1 µM
GI50 [4]: 17.2 µM (inactive)
GI50 [46]: 8.51 µM (inactive)
GI50 [5]: 16.9 µM (inactive)
GI50 [6]: 19.6 µM (inactive)
GI50 [7]: 8.47 µM (inactive)
GI50 [47]: 17 µM (inactive)
GI50 [8]: 18.5 µM (inactive)
GI50 [48]: 24.5 µM (inactive)
GI50 [9]: 18.3 µM (inactive)
GI50 [10]: 13.2 µM (inactive)
GI50 [11]: 17.3 µM (inactive)
GI50 [49]: 6.92 µM (inactive)
GI50 [12]: 15.7 µM (inactive)
GI50 [13]: 23.2 µM (inactive)
GI50 [14]: 16.2 µM (inactive)
GI50 [15]: 20.4 µM (inactive)
GI50 [16]: 17.3 µM (inactive)
GI50 [17]: 9.51 µM (inactive)
GI50 [50]: 23.8 µM (inactive)
GI50 [18]: 14.3 µM (inactive)
GI50 [20]: 13.4 µM (inactive)
GI50 [21]: 19.5 µM (inactive)
GI50 [51]: 15.2 µM (inactive)
GI50 [22]: 19.5 µM (inactive)
GI50 [23]: 20.7 µM (inactive)
GI50 [24]: 17.5 µM (inactive)
GI50 [25]: 14 µM (inactive)
GI50 [26]: 19.2 µM (inactive)
GI50 [27]: 15.1 µM (inactive)
GI50 [52]: 15.3 µM (inactive)
GI50 [53]: 17.1 µM (inactive)
GI50 [29]: 21.7 µM (inactive)
GI50 [54]: 15.1 µM (inactive)
GI50 [30]: 15 µM (inactive)
GI50 [55]: 20.7 µM (inactive)
GI50 [56]: 15.1 µM (inactive)
GI50 [57]: 6.5 µM (inactive)
GI50 [31]: 19.7 µM (inactive)
GI50 [32]: 18.9 µM (inactive)
GI50 [33]: 18.1 µM (inactive)
GI50 [34]: 16.2 µM (inactive)
GI50 [58]: 11.3 µM (inactive)
GI50 [59]: 16.2 µM (inactive)
GI50 [60]: 21.8 µM (inactive)
GI50 [61]: 13.3 µM (inactive)
GI50 [35]: 14.2 µM (inactive)
GI50 [36]: 16.5 µM (inactive)
GI50 [62]: 20 µM (inactive)
GI50 [63]: 14.6 µM (inactive)
GI50 [37]: 13.6 µM (inactive)
GI50 [38]: 14.8 µM (inactive)
GI50 [64]: 16.3 µM (inactive)
GI50 [41]: 21.3 µM (inactive)
